Columns and labels:
Type in all cases: biochemical
[1] = target: T1, Recombinant human aldo-keto reductase family 1 member C2 (AKR1C2) protein (Homo sapiens, UniProt P52895); assay: Inhibition of the aldo-keto reductase family 1 member C2, 3H-dihydrotestosterone conversion; details: inhibitor at 10 μM
T1 construct: made in house; host or cells: Sf-9 insect cells (baculovirus)
T1 sequence (P52895 1-323): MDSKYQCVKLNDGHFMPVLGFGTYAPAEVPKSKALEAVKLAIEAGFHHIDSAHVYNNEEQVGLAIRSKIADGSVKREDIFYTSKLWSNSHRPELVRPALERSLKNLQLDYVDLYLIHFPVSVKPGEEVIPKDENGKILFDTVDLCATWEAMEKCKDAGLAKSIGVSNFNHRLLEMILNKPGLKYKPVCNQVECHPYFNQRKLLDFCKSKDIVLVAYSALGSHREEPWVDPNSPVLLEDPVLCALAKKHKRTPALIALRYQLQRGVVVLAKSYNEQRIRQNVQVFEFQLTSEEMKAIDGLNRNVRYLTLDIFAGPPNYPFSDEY
Procedure: Inhibition of the Aldo-Keto Reductase Family 1 Member C2
Recombinant human aldo-keto reductase family 1 member C2 (AKR1C2) protein (GenBank Accession No. NM_001354.6) produced in Sf-9 insect cells with baculovirus was used for screening. Recombinant protein (13.6 nM/0.5 μg/ml) was incubated in 20 mM KH2PO4 pH 7.4, 1 mM EDTA, complete protease inhibitor tablet, 1 mM NADPH with 6.25 nM ^3H-labelled dihydrotestosterone for 45 min at +37° C., in the presence of the potential inhibitor at 10 μM concentration. Inhibitor stock solutions were prepared in DMSO. Final concentration of DMSO was adjusted to 1% in all samples. The enzyme reaction was stopped by addition of 10% trichloroacetic acid (final concentration 1%). Samples were filtrated through […] filtration plate (Merck). Analyses of samples was done with Waters Acquity UPLC H-class equipped with XBridge C18 column and XBridge VanGuard C18 guard column. Acetonitrile: 0.1% formic acid in water (42/58 v/v) with flow of 1.2 ml/min was used for mobile phase. The eluent was mixed with scintillant and the radioactivity was monitored in the eluate by a Scintillation Analyser. The conversion percentage of triated substrate (dihydrotestosterone) to tritiated product (5α-androstane-3α,17β-diol) for each sample was determined by the relative percentages of substrate and product in the chromatogram. The inhibition percentages of samples were calculated using following formula: […]

[2] = target: T2, 17β-Hydroxysteroid Dehydrogenase Type 2 Enzyme (17β-HSD2) (Homo sapiens, UniProt P37059); assay: Inhibition of the 17β-hydroxysteroid dehydrogenase type 2 enzyme, 3H-testosterone conversion; details: inhibitor at 10 μM
T2 construct: made in house; host or cells: Sf-9 insect cells (baculovirus)
T2 sequence (P37059 1-387): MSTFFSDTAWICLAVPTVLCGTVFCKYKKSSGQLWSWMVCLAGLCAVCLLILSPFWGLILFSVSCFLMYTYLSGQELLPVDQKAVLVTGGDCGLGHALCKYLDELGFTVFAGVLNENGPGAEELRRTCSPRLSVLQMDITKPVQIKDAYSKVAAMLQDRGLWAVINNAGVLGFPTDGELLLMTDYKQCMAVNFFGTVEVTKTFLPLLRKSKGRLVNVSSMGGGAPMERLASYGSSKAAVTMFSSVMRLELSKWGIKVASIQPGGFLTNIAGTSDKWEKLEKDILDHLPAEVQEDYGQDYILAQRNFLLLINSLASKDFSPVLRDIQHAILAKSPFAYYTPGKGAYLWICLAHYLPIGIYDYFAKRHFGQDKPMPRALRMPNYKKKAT
Procedure: Inhibition of the 17β-Hydroxysteroid Dehydrogenase Type 2 Enzyme
Recombinant human 173-HSD2 protein (GenBank Accession No. NM_002153.3) produced in Sf-9 insect cells with baculovirus was used for screening.
Recombinant protein (105 nM/4.5 μg/ml) was incubated in 20 mM KH2PO4 pH 8.5, 1 mM EDTA, complete protease inhibitor cocktail, 1 mM NAD with 56.25 nM testosterone (including ^3H-labelled testosterone) for 30 min at RT, in the presence of the potential inhibitor at 10 μM concentration. Inhibitor stock solutions were prepared in DMSO. Final concentration of DMSO was adjusted to 1% in all samples. The enzyme reaction was stopped by addition of 10% trichloroacetic acid (final concentration 1%). Samples were filtrated through […] filtration plate. Analyses of samples was done with Waters Acquity UPLC H-class equipped with XBridge C18 column and XBridge VanGuard C18 guard column. Acetonitrile: 0.1% formic acid in water (42/58 v/v) with flow of 1.2 ml/min was used for mobile phase. The eluent was mixed with scintillant and the radioactivity was monitored in the eluate by a Scintillation Analyser. The conversion percentage of tritiated substrate (testosterone) to product tritiated (androstenedione) for each sample was determined by the relative percentages of substrate and product in the chromatogram. The inhibition percentages of samples were calculated using following formula: […]

[3] = target: T3, Recombinant human AKR1C3 (17β-HSD5) protein (Homo sapiens, UniProt P42330); assay: Inhibition of AKR1C3 (17β-hydroxysteroid dehydrogenase type 5) enzyme, fluorescence assay; details: inhibitor at 500 nM
T3 construct: made in house; host or cells: E. coli
T3 sequence (P42330 1-323): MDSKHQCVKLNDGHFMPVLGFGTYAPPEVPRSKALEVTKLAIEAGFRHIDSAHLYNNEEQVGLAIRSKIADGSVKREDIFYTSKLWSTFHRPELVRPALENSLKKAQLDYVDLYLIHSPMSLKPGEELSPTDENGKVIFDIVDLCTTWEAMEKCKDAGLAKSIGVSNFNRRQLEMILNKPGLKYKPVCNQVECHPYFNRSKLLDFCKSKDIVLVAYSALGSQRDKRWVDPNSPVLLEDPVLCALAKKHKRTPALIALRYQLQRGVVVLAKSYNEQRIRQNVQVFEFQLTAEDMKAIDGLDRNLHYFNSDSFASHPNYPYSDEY
Procedure: Inhibition of AKR1C3 (17β-Hydroxysteroid Dehydrogenase Type 5) Enzyme
Recombinant human AKR1C3 (17β-HSD5) protein (GenBank Accession No. NM_003739.6) produced in E. coli was used for screening. Recombinant protein (27 nM/1 μg/ml) was incubated in 20 mM KH2PO4, 1 mM EDTA, complete protease inhibitor cocktail, pH 7.4 with 1 μM 9-acetyl-2,3,6,7-tetrahydro-1H,5H,11H-pyrano[2,3-f]pyrido[3,2,1-ij]quinolin-11-one and 1 mM NADPH for 60 to 120 min at RT, in the presence of the potential inhibitor at 500 nM concentration. Inhibitor stock solutions were prepared in DMSO. Final concentration of DMSO was adjusted to 1% in all samples. The samples were analysed by fluorescent measurement with Tecan Spark microplate reader at wavelengths 420 nm for excitation and 510 nm for emission. Samples were evaluated against standards of 9-(1-hydroxyethyl)-2,3,6,7-tetrahydro-1H,5H,11H-pyrano[2,3-f]pyrido[3,2,1-ij]quinolin-11-one at concentrations 1 μM-10 nM. Background fluorescence was reduced from all the samples and standards. The concentrations of formed product were calculated from the standard curve with Tecan Spark Magellan software. The formed product concentrations were used to calculate conversion percentages. The inhibition percentages for the samples were calculated from the conversion percentages.
Inhibition percentages of samples were calculated using following formula: […]

Structure (SMILES)	inhibition at 10 µM [1]	inhibition at 10 µM [2]	inhibition at 0.5 µM [3]
CC(=O)N1CCN(C(=O)N2CCC(=C(C#N)c3ccc(F)cc3)CC2)CC1 [Compound 143, 2-(1-(4-acetylpiperazine-1-carbonyl)piperidin-4-ylidene)-2-(4-fluorophenyl)acetonitrile]	9%	7%	93%
N#CC(=C1CCN(C(=O)N2CCn3ncnc3C2)CC1)c1ccc(Cl)s1 [Compound 168, 2-(5-chlorothiophen-2-yl)-2-(1-(5,6,7,8-tetrahydro-[1,2,4]triazolo[1,5-a]pyrazine-7-carbonyl)piperidin-4-ylidene)acetonitrile]	24%	-2%	98%
N#CC(=C1CCN(C(=O)N2CCc3nocc3C2)CC1)c1ccc(C(F)(F)F)cc1 [Compound 87, 2-(1-(4,5,6,7-tetrahydroisoxazolo[4,3-c]pyridine-5-carbonyl)piperidin-4-ylidene)-2-(4-(trifluoromethyl)phenyl)acetonitrile]	31%	23%	99%
N#CC(=C1CCN(C(=O)N2CCC(CO)CC2)CC1)c1ccc(F)c(F)c1 [Compound 33, 2-(3,4-difluorophenyl)-2-(1-(4-(hydroxymethyl)piperidine-1-carbonyl)piperidin-4-ylidene)acetonitrile]	16%	7%	97%
CCCOC1CCN(C(=O)N2CCC(=C(C#N)c3ccc(Cl)cc3)CC2)CC1 [Compound 134, 2-(4-chlorophenyl)-2-(1-(4-propoxypiperidine-1-carbonyl)piperidin-4-ylidene)acetonitrile]	13%	12%	98%
COC[C@@H]1CCCN1C(=O)N1CCC(=C(C#N)c2ccc(Cl)cc2)CC1 [Compound 82, (S)-2-(4-chlorophenyl)-2-(1-(2-(methoxymethyl)pyrrolidine-1-carbonyl)piperidin-4-ylidene)acetonitrile]	3%	28%	100%
N#CC(=C1CCN(C(=O)N2CCC(CCO)CC2)CC1)c1ccc(Cl)cc1 [Compound 131, 2-(4-chlorophenyl)-2-(1-(4-(2-hydroxyethyl)piperidine-1-carbonyl)piperidin-4-ylidene) acetonitrile]	8%	13%	98%

More lines, now with the values ahead:

inhibition at 10 µM [1]	inhibition at 10 µM [2]	inhibition at 0.5 µM [3]	Structure (SMILES)
30%	17%	96%	N#CC(=C1CCN(C(=O)N2CCc3sccc3C2)CC1)c1ccc(F)cc1F [Compound 112, 2-(2,4-difluorophenyl)-2-(1-(4,5,6,7-tetrahydrothieno[3,2-c]pyridine-5-carbonyl)piperidin-4-ylidene)acetonitrile]
29%	21%	103%	N#CC(=C1CCN(C(=O)N2CCc3[nH]ncc3C2)CC1)c1ccc(F)c(F)c1 [Compound 43, 2-(3,4-difluorophenyl)-2-(1-(4,5,6,7-tetrahydro-1H-pyrazolo[4,3-c]pyridine-5-carbonyl)piperidin-4-ylidene)acetonitrile]
19%	7%	99%	N#CC(=C1CCN(C(=O)N2CCn3nncc3C2)CC1)c1ccc(F)cc1 [Compound 13, 2-(4-fluorophenyl)-2-(1-(4,5,6,7-tetrahydro-[1,2,3]triazolo[1,5-a]pyrazine-5-carbonyl)piperidin-4-ylidene)acetonitrile]
22%	25%	94%	N#CC(=C1CCN(C(=O)N2CCC(CCCO)CC2)CC1)c1cccc(Cl)c1 [Compound 95, 2-(3-chlorophenyl)-2-(1-(4-(3-hydroxypropyl)piperidine-1-carbonyl)piperidin-4-ylidene)acetonitrile]
13%	3%	96%	N#CC(=C1CCN(C(=O)N2CCC(O)CC2)CC1)c1ccc(Cl)s1 [Compound 57, 2-(5-chlorothiophen-2-yl)-2-(1-(4-hydroxypiperidine-1-carbonyl)piperidin-4-ylidene)acetonitrile]
11%	34%	97%	N#CC(=C1CCN(C(=O)N2CCc3sccc3C2)CC1)c1cccc2[nH]ncc12 [Compound 114, 2-(1H-indazol-4-yl)-2-(1-(4,5,6,7-tetrahydrothieno[3,2-c]pyridine-5-carbonyl)piperidin-4-ylidene)acetonitrile]
9%	30%	99%	N#CC(=C1CCN(C(=O)N2CCC(C(F)(F)F)CC2)CC1)c1ccc(Cl)cc1 [Compound 90, 2-(4-chlorophenyl)-2-(1-(4-(trifluoromethyl)piperidine-1-carbonyl)piperidin-4-ylidene)acetonitrile]
0%	12%	97%	CC(=O)N1CCN(C(=O)N2CCC(=C(C#N)c3ccc(Cl)cc3)CC2)CC1 [Compound 130, 2-(1-(4-acetylpiperazine-1-carbonyl)piperidin-4-ylidene)-2-(4-chlorophenyl)acetonitrile]
33%	2%	99%	N#CC(=C1CCN(C(=O)N2CCn3cncc3C2)CC1)c1ccc(F)cc1F [Compound 123, 2-(2,4-difluorophenyl)-2-(1-(5,6,7,8-tetrahydroimidazo[1,5-a]pyrazine-7-carbonyl)piperidin-4-ylidene)acetonitrile]

Source: patent publication US12637471B2, “Heterocyclic compounds, compositions, methods of preparation and uses thereof” (Organon R&D Finland Ltd, priority 2021, dated 2026)
